Test results as given in patent publication US12545639B2, “3-substituted phenylamidine compounds, preparation and use thereof” (PI INDUSTRIES LTD., priority 2019, dated 2026).

Assays:
Pyricularia oryzae = assay: microbe, parasite or virus in culture; assay type: cell-based; conditions: 168 h, read-out: control compared to the untreated check (radial growth)
Rhizoctonia solani = Rhizoctonia solani (rice sheath blight/potato black scurf) in vitro test, radial growth on potato dextrose agar; assay type: cell-based; conditions: 168 h, 300 ppm in potato dextrose agar, 25° C., 60% relative humidity, seven days, read-out: control compared to the untreated check (radial growth)
Botrytis cinerea = Botrytis cinerea (gray mold) in vitro test, radial growth on potato dextrose agar; assay type: cell-based; conditions: 168 h, 300 ppm in potato dextrose agar, 22° C., 90% relative humidity, seven days, read-out: control compared to the untreated check (radial growth)
Alternaria solani = Alternaria solani (early blight of tomato/potato) in vitro test, radial growth on potato dextrose agar; assay type: cell-based; conditions: 168 h, 300 ppm in potato dextrose agar, 25° C., 60% relative humidity, seven days, read-out: control compared to the untreated check (radial growth)
[1] = tested on: Septoria lycopersici/Corynespora cassicola (CORYCA); assay: Septoria lycopersici/Corynespora cassicola (CORYCA) (leaf spot of tomato) in vitro test, radial growth on potato dextrose agar; assay type: cell-based; conditions: 168 h, 300 ppm in potato dextrose agar, 25° C., 70% relative humidity, seven days, read-out: control compared to the untreated check (radial growth)
Fusarium culmorum = Fusarium culmorum (foot rot of cereals) in vitro test, radial growth on potato dextrose agar; assay type: cell-based; conditions: 168 h, 300 ppm in potato dextrose agar, 25° C., 60% relative humidity, seven days, read-out: control compared to the untreated check (radial growth)
Description: Compounds were dissolved in 0.3% dimethyl sulfoxide and then added to potato dextrose agar medium just prior to dispensing it into petri dishes. 5 mL medium with the compound in the desired concentration was dispensed into 60 mm sterile petri-plates. After solidification each plate was seeded with a 5 mm size mycelial disc taken from the periphery of an actively growing virulent culture plate. Plates were incubated in growth chambers at 25° C. temperature and 60% relative humidity for seven days and then the radial growth was measured and compared to that of the untreated control.

Phakopsora pachyrhizi = Phakopsora pachyrhizi test in soybean, preventive, in vivo on plants; conditions: in Glycine max, read-out: Efficacy (% control), disease severity compared to the untreated check
Colletotrichum capsici = Colletotrichum capsici (anthracnose) in vitro test, radial growth on potato dextrose agar; assay type: cell-based; conditions: Colletotrichum truncatum, 168 h; 300 ppm in potato dextrose agar; 25° C., 60% relative humidity, seven days; read-out: control compared to the untreated check (radial growth)

CCN(C)C=Nc1cc(OC)cc(Cc2ccccc2Br)c1C [Compound 294, N′-(3-(2-bromobenzyl)-5-methoxy-2-methylphenyl)-N-ethyl-N-methylformimidamide]
≥ 70%: inhibition of growth at 300 ppm (Pyricularia oryzae) | inhibition of growth at 300 ppm (Rhizoctonia solani) | inhibition of growth at 300 ppm (Botrytis cinerea) | inhibition of growth at 300 ppm (Alternaria solani) | inhibition of growth at 300 ppm [1] | inhibition of growth at 300 ppm (Fusarium culmorum) | pest or weed control at 500 ppm (Phakopsora pachyrhizi)

CCN(C)C=Nc1cc(C)cc(Cc2cccc(F)c2)c1SC [Compound 190, N-ethyl-N′-(3-(3-fluorobenzyl)-5-methyl-2-(methylthio)phenyl)-N-methylformimidamide]
≥ 70%: inhibition of growth at 300 ppm (Pyricularia oryzae) | inhibition of growth at 300 ppm (Rhizoctonia solani) | inhibition of growth at 300 ppm (Alternaria solani) | inhibition of growth at 300 ppm (Colletotrichum capsici) | inhibition of growth at 300 ppm (Fusarium culmorum) | pest or weed control at 500 ppm (Phakopsora pachyrhizi)

CCN(C)C=Nc1cc(OC)cc(Cc2cccc(Cl)c2)c1C [Compound 264, N′-(3-(3-chlorobenzyl)-5-methoxy-2-methylphenyl)-N-ethyl-N-methylformimidamide]
≥ 70%: inhibition of growth at 300 ppm (Pyricularia oryzae) | inhibition of growth at 300 ppm (Rhizoctonia solani) | inhibition of growth at 300 ppm (Botrytis cinerea) | inhibition of growth at 300 ppm (Alternaria solani) | inhibition of growth at 300 ppm [1] | inhibition of growth at 300 ppm (Fusarium culmorum) | pest or weed control at 500 ppm (Phakopsora pachyrhizi)

CCN(C)C=Nc1cc(OC)cc(Cc2ccc(F)cc2)c1C [Compound 261, N-ethyl-N′-(3-(4-fluorobenzyl)-5-methoxy-2-methylphenyl)-N-methylformimidamide]
≥ 70%: inhibition of growth at 300 ppm (Pyricularia oryzae) | inhibition of growth at 300 ppm (Rhizoctonia solani) | inhibition of growth at 300 ppm (Botrytis cinerea) | inhibition of growth at 300 ppm (Alternaria solani) | inhibition of growth at 300 ppm [1] | inhibition of growth at 300 ppm (Fusarium culmorum) | pest or weed control at 500 ppm (Phakopsora pachyrhizi)

CCN(C)C=Nc1cc(C)cc(Nc2ccc(SC(F)(F)F)cc2)c1Cl [Compound 26, N′-(2-chloro-5-methyl-3-((4-((trifluoromethyl)thio)phenyl)amino)phenyl)-N-ethyl-N-methylformimidamide]
≥ 70%: inhibition of growth at 300 ppm (Rhizoctonia solani) | inhibition of growth at 300 ppm (Botrytis cinerea) | inhibition of growth at 300 ppm (Alternaria solani) | inhibition of growth at 300 ppm (Colletotrichum capsici) | inhibition of growth at 300 ppm (Fusarium culmorum) | pest or weed control at 500 ppm (Phakopsora pachyrhizi)

CCN(C)C=Nc1cc(Cl)cc(Cc2ccc(C#N)cc2)c1C [Compound 246, N′-(5-chloro-3-(4-cyanobenzyl)-2-methylphenyl)-N-ethyl-N-methylformimidamide]
≥ 70%: inhibition of growth at 300 ppm (Pyricularia oryzae) | inhibition of growth at 300 ppm (Rhizoctonia solani) | inhibition of growth at 300 ppm (Botrytis cinerea) | inhibition of growth at 300 ppm (Alternaria solani) | inhibition of growth at 300 ppm (Colletotrichum capsici) | inhibition of growth at 300 ppm (Fusarium culmorum)

CCN(C)C=Nc1cc(OC)cc(Cc2ccc(C(F)(F)F)cc2)c1C [Compound 295, N-ethyl-N′-(5-methoxy-2-methyl-3-(4-(trifluoromethyl)benzyl)phenyl)-N-methylformimidamide]
≥ 70%: inhibition of growth at 300 ppm (Pyricularia oryzae) | inhibition of growth at 300 ppm (Rhizoctonia solani) | inhibition of growth at 300 ppm (Botrytis cinerea) | inhibition of growth at 300 ppm (Alternaria solani) | inhibition of growth at 300 ppm [1] | inhibition of growth at 300 ppm (Fusarium culmorum) | pest or weed control at 500 ppm (Phakopsora pachyrhizi)

CCN(C)C=Nc1cc(Cl)cc(Nc2cccc(Br)c2)c1C [Compound 164, N′-(3-((3-bromophenyl)amino)-5-chloro-2-methylphenyl)-N-ethyl-N-methylformimidamide]
≥ 70%: inhibition of growth at 300 ppm (Pyricularia oryzae) | inhibition of growth at 300 ppm (Rhizoctonia solani) | inhibition of growth at 300 ppm (Botrytis cinerea) | inhibition of growth at 300 ppm (Alternaria solani) | inhibition of growth at 300 ppm [1] | inhibition of growth at 300 ppm (Fusarium culmorum)

CCN(C)C=Nc1cc(OC)cc(Cc2ccc(F)c(F)c2)c1C [Compound 286, N′-(3-(3,4-difluorobenzyl)-5-methoxy-2-methylphenyl)-N-ethyl-N-methylformimidamide]
≥ 70%: inhibition of growth at 300 ppm (Pyricularia oryzae) | inhibition of growth at 300 ppm (Rhizoctonia solani) | inhibition of growth at 300 ppm (Botrytis cinerea) | inhibition of growth at 300 ppm (Alternaria solani) | inhibition of growth at 300 ppm [1] | inhibition of growth at 300 ppm (Fusarium culmorum) | pest or weed control at 500 ppm (Phakopsora pachyrhizi)

CCN(C)C=Nc1cc(OC)cc(Cc2cc(F)ccc2Cl)c1C [Compound 293, N′-(3-(2-chloro-5-fluorobenzyl)-5-methoxy-2-methylphenyl)-N-ethyl-N-methylformimidamide]
≥ 70%: inhibition of growth at 300 ppm (Pyricularia oryzae) | inhibition of growth at 300 ppm (Rhizoctonia solani) | inhibition of growth at 300 ppm (Botrytis cinerea) | inhibition of growth at 300 ppm (Alternaria solani) | inhibition of growth at 300 ppm [1] | inhibition of growth at 300 ppm (Fusarium culmorum)

CCN(C)C=Nc1cc(C)cc(Nc2ccc(C)cc2)c1Cl [Compound 1, N′-(2-chloro-5-methyl-3-(p-tolylamino)phenyl)-N-ethyl-N-methylformimidamide]
≥ 70%: inhibition of growth at 300 ppm (Pyricularia oryzae) | inhibition of growth at 300 ppm (Rhizoctonia solani) | inhibition of growth at 300 ppm (Alternaria solani) | inhibition of growth at 300 ppm (Colletotrichum capsici) | inhibition of growth at 300 ppm (Fusarium culmorum)

CCN(C)C=Nc1cc(OC)cc(Cc2ccccc2Cl)c1C [Compound 265, N′-(3-(2-chlorobenzyl)-5-methoxy-2-methylphenyl)-N-ethyl-N-methylformimidamide]
≥ 70%: inhibition of growth at 300 ppm (Pyricularia oryzae) | inhibition of growth at 300 ppm (Rhizoctonia solani) | inhibition of growth at 300 ppm (Botrytis cinerea) | inhibition of growth at 300 ppm (Alternaria solani) | inhibition of growth at 300 ppm [1] | inhibition of growth at 300 ppm (Fusarium culmorum)

CCN(C)C=Nc1cc(C)cc(Cc2ccc(C#N)cc2)c1Cl [Compound 46, N′-(2-chloro-3-(4-cyanobenzyl)-5-methylphenyl)-N-ethyl-N-methylformimidamide]
≥ 70%: inhibition of growth at 300 ppm (Pyricularia oryzae) | inhibition of growth at 300 ppm (Rhizoctonia solani) | inhibition of growth at 300 ppm (Botrytis cinerea) | inhibition of growth at 300 ppm (Alternaria solani) | inhibition of growth at 300 ppm (Colletotrichum capsici) | inhibition of growth at 300 ppm (Fusarium culmorum)

CCN(C)C=Nc1cc(OC)cc(Cc2ccccc2OC(F)(F)F)c1C [Compound 299, N-ethyl-N′-(5-methoxy-2-methyl-3-(2-(trifluoromethoxy)benzyl)phenyl)-N-methylformimidamide]
≥ 70%: inhibition of growth at 300 ppm (Pyricularia oryzae) | inhibition of growth at 300 ppm (Rhizoctonia solani) | inhibition of growth at 300 ppm (Botrytis cinerea) | inhibition of growth at 300 ppm (Alternaria solani) | inhibition of growth at 300 ppm [1] | inhibition of growth at 300 ppm (Fusarium culmorum) | pest or weed control at 500 ppm (Phakopsora pachyrhizi)

CCN(C)C=Nc1cc(OC)cc(Cc2ccccc2C)c1C [Compound 262, N-ethyl-N′-(5-methoxy-2-methyl-3-(2-methylbenzyl)phenyl)-N-methylformimidamide]
≥ 70%: inhibition of growth at 300 ppm (Pyricularia oryzae) | inhibition of growth at 300 ppm (Rhizoctonia solani) | inhibition of growth at 300 ppm (Botrytis cinerea) | inhibition of growth at 300 ppm (Alternaria solani) | inhibition of growth at 300 ppm [1] | inhibition of growth at 300 ppm (Fusarium culmorum) | pest or weed control at 500 ppm (Phakopsora pachyrhizi)

CCN(C)C=Nc1cc(F)cc(Cc2ccc(C(F)(F)F)cc2)c1C [Compound 188, N-ethyl-N′-(5-fluoro-2-methyl-3-(4-(trifluoromethyl)benzyl)phenyl)-N-methylformimidamide]
≥ 70%: inhibition of growth at 300 ppm (Pyricularia oryzae) | inhibition of growth at 300 ppm (Rhizoctonia solani) | inhibition of growth at 300 ppm (Botrytis cinerea) | inhibition of growth at 300 ppm (Alternaria solani) | inhibition of growth at 300 ppm [1] | inhibition of growth at 300 ppm (Fusarium culmorum) | pest or weed control at 500 ppm (Phakopsora pachyrhizi)

CCN(C)C=Nc1cc(OC)cc(Cc2cccc(OC(F)(F)F)c2)c1C [Compound 305, N-ethyl-N′-(5-methoxy-2-methyl-3-(3-(trifluoromethoxy)benzyl)phenyl)-N-methylformimidamide]
≥ 70%: inhibition of growth at 300 ppm (Pyricularia oryzae) | inhibition of growth at 300 ppm (Rhizoctonia solani) | inhibition of growth at 300 ppm (Botrytis cinerea) | inhibition of growth at 300 ppm (Alternaria solani) | inhibition of growth at 300 ppm [1] | inhibition of growth at 300 ppm (Fusarium culmorum)
